# Measurements published in US8604029B2, “2-[(2-substituted)-indolizin-3-yl]-2-oxo-acetamide derivatives as antifungal agents” (F2G Ltd British Body Corporate, priority 2006, dated 2013).
# Tested on: Aspergillus fumigatus
# Assay: MIC measurement, YAG medium
# Assay type: cell-based
# Details: Aspergillus fumigatus, read-out: MIC A. fumigatus
# Description: Between 1 and 5 mgs of compound were accurately weighed out into a sterile Eppendorf tube. The compound was dissolved in DMSO to give a solution containing […]. Tubes were stored at −20° C. until required.
# On the day of testing thawed solutions were vortex mixed to ensure homogeneity. 30 μL of solution was removed and added to 570 μL of sterile water in a separate sterile Eppendorf. The thoroughly mixed solution was used to prepare a series of doubling dilutions in water, in a deep well plate. Thirteen replicate plates were prepared using a Minitrak by aspirating 20 μL from each well into eleven clear polystyrene 96 well plates.
# Spores of Aspergillus spp. (Aspergillus fumigatus [two strains], Aspergillus terreus [two strains], Aspergillus niger and Aspergillus flavus) were harvested from cultures grown on Sabarauds agar for 5 days, and resuspended in PBS/Tween 80 to approx 1×10^7 cfu/mL. Other filamentous fungi (Absidia corymbifera, Fusarium solani, Rhizomucor, Scedosporium spp., Trichophyton spp.), were grown on Sabarauds agar for 2-10 days and spores/hyphae resuspended in PBS/Tween to give approx 1×10^7 cfu/mL. Candida species (Candida albicans, Candida glabrata, Candida krusei, Candida parapsilosis and Candida tropicalis) were grown on Sabarauds agar, cells were harvested from the agar using a sterile loop and resuspended in PBS/Tween 80 to approx 1×10^6 cfu/mL. Each organism suspension was diluted in RPMI medium, containing 2% glucose and 0.135 M MOPS buffer (pH 7.0) to 0.5-2×10^4 cfu/mL for Aspergillus spp. and other filamentous fungi and 0.5-2×10^3 cfu/mL for yeast. 80 μL of an organism suspension was added to each well of the plate containing drug dilutions.
# This produced MIC plates with a drug range 50-0.05 mg/L and organism inocula of 1-2×10^4 cfu/mL for Aspergillus spp. and other filamentous fungi and 1-2×10^3 cfu/mL for yeasts. All plates were incubated for 24-48 hrs at 35° C. Growth was assessed by monitoring the optical density at 485 nm for each well. The MIC of a compound is the lowest drug concentration that inhibits growth of an organism by >80% compared with a drug free control. MICs are recorded as mg/L. Other growth media can be used for susceptibility testing, and the activity of the described compounds can also be assessed in a medium comprising 1% glucose, 1% ammonium chloride and 0.5% yeast extract (YAG medium). To perform MIC tests in this medium, dilutions of compounds are prepared in microtitre plates as described above. Fungal strains to be tested are grown and harvested in an identical manner to that described above, each organism suspension is then diluted in YAG medium to 0.5-2×10^4 cfu/mL for Aspergillus spp. and other filamentous fungi and 0.5-2×10^3 cfu/mL for yeast. 80 μL of an organism suspension was added to each well of the plate containing drug dilutions. This produced MIC plates with a drug range 50-0.05 mg/L and organism inocula of 1-2×10^4 cfu/mL for Aspergillus spp. and other filamentous fungi and 1-2×10^3 cfu/mL for yeasts. All plates were incubated for 24 hrs at 35° C. Growth was assessed by monitoring the optical density at 485 nm for each well. The MIC of a compound is the lowest drug concentration that inhibits growth of an organism by >70% compared with a drug free control. MICs are recorded as mg/L. In cases where the MIC of an organism is […] mg/L the MIC is repeated using a concentration range of 0.5-0.0005 mg/L. MIC tests in YAG medium have more clear-cut endpoints and have slightly lower MICs than those performed in RPMI medium.
# The following organisms were tested: Absidia corymbifera, Aspergillus flavus, Aspergillus fumigatus AF293 and AF210, Aspergillus niger, Aspergillus terreus AT4 and AT49, Candida albicans, Candida glabrata, Candida krusei, Candida parapsilosis, Candida tropicalis, Fusarium solani, Rhizomucor sp., Scedosporium apiospermum, Scedosporium prolificans, Trichophyton mentagrophytes, and Trichophyton rubrum.
row,Structure (SMILES),MIC
1,"CCN(CC)C(=O)Oc1cc(-c2ccc(NC(=O)C(=O)c3c(-c4ccccc4)cc4ccccn34)cc2)on1 [Example 27, Diethyl-carbamic acid-5-{4-[2-oxo-2-(2-phenyl-indolizin-3-yl)-aeetylamino]-phenyl}-isoxazol-3-yl ester]",< 1 µg/mL

# Same assay, conditions: Aspergillus fumigatus; YAG medium; MIC banded into grades; strain AF293; read-out: MIC A. fumigatus
row,Structure (SMILES),MIC
1,"CC(C)c1ncc(C(C)(C)c2ccc(NC(=O)C(=O)c3c(-c4ccccc4)cc4ccccn34)cc2)n1C [Example 17, N-{4-[1-(2-Isopropyl--3-methyl-3H-imidazol-4-yl)-1-methyl-ethyl]-phenyl}-2-oxo-2-(2-phenyl-indolizin-3-yl)-acetamide]",> 10 µg/mL
2,"CC(C)c1nccn1CCOC(=O)C(C)(C)c1ccc(NC(=O)C(=O)c2c(-c3ccccc3)cc3ccccn23)cc1 [Example 18, 2-methyl-2-{4-[2-oxo-2-(2-phenyl-indolizin-3-yl)-acetylamino]-phenyl}-propionic acid 2-(2-isopropyl-imidazol-1-yl)-ethyl ester]",> 10 µg/mL
3,"CN1CCN(c2ccc(NC(=O)C(=O)c3c(-c4ccccc4)cc4ccccn34)cc2-c2ncco2)CC1 [Example 19, N-[4-(4-methyl-piperazin-1-yl)-3-oxazol-2-yl-phenyl]-2-oxo-2-(2-phenyl-indolizin-3-yl)-acetamide]",> 10 µg/mL
4,"Cc1nccn1CCCOc1ccc(NC(=O)C(=O)c2c(-c3ccccc3)cc3ccccn23)cc1C(C)C [Example 20, N-{3-Isopropyl-4-[3-(2-methyl-imidazol-1-yl)-propoxy]-phenyl}-2-oxo-2-(2-phenyl-indolizin-3-yl)-acetamide]",1 to 10 µg/mL
5,"Cc1cc(C)nc(N2CCN(c3ccc(NC(=O)C(=O)c4c(-c5ccccc5)cc5ccccn45)cc3)CC2)c1 [Example 21, N-{4-[4-(4,6-Dimethyl-pyridin-2-yl)-piperazin-1-yl]-phenyl}-2-oxo-2-(2-phenyl-indolizin-3-yl)-acetamide]",< 1 µg/mL
6,"CC(C)c1nccn1CCOC(=O)C(C)(C)c1cccc(NC(=O)C(=O)c2c(-c3ccccc3)cc3ccccn23)c1 [Example 22, 2-Methyl-2-{3-[2-oxo-2-(2-phenyl-indolizin-3-yl)-acetylamino]-phenyl}-propionic acid 2-(2-isopropyl-imidazol-1-yl)-ethyl ester]",> 10 µg/mL
7,"O=C(Nc1ccc(N2CCC3(CC2)OCCO3)cc1)C(=O)c1c(-c2ccccc2)cc2ccccn12 [Example 23, N-[4-(1,4-dioxa-8-aza-spiro[4.5]dec-8-yl)-phenyl}-2-oxo-2-(2-phenyl-indolizine-3-yl)-acetamide]",< 1 µg/mL
8,"Cc1cc(C)nc(N2CCN(c3ccc(NC(=O)C(=O)c4c(-c5ccccc5)cc5ccc(F)cn45)cc3)CC2)c1 [Example 32, N-{4-[4-(4,6-Dimethyl-pyridin-2-yl)-piperazin-1-yl]-phenyl}-2-(6-fluoro-2-phenyl-indolizin-3-yl)-2-oxo-acetamide]",< 1 µg/mL
9,"O=C(Nc1ccc(N2CCN(CCc3ccco3)CC2)cc1)C(=O)c1c(-c2ccccc2)cc2ccccn12 [Example 39, N-{4-[4-(2-Furan-2-yl-ethyl)-piperazin-1-yl]-phenyl}-2-oxo-2-(2-phenyl-indolizin-3-yl)-acetamide]",< 1 µg/mL
10,"C=C(C)CN1CCN(c2ccc(NC(=O)C(=O)c3c(-c4ccc(N5CCOCC5)cc4)cc4ccccn34)cc2)CC1 [Example 40, N-{4-[4-(2-Methyl-allyl)-piperazin-1-yl]-phenyl}-2-[2-(4-morpholin-4-yl-phenyl)-indolizin-3-yl]-2-oxo-acetamide]",> 10 µg/mL
11,"Cc1cccc(N2CCN(c3ccc(NC(=O)C(=O)c4c(-c5ccccc5)cc5ccccn45)cc3)CC2)n1 [Example 43, N-{4-[4-(6-Methyl-pyridin-2-yl)-piperazin-1-yl]-phenyl}-2-oxo-2-(2-phenyl-indolizin-3-yl)-acetainide]",< 1 µg/mL

# Further lines, results first:
row,MIC,Structure (SMILES)
1,< 1 µg/mL,"Cc1cc(C)nc(N2CCN(c3ccc(NC(=O)C(=O)c4c(-c5ccccc5)cc5ccccn45)cc3)CC2)n1 [Example 44, N-{4-[4-(4,6-Dimethyl-pyrimidin-2-yl)-piperazin-1-yl]-phenyl}-2-oxo-2-(2-phenyl-indolizin-3-yl)-acetamide]"
2,< 1 µg/mL,"C=C1CCN(c2ccc(NC(=O)C(=O)c3c(-c4cccnc4C)cc4ccccn34)cc2)CC1 [Example 46, N-[4-(4-Methylene-piperidin-1-yl)-phenyl]-2-[2-(2-methyl-pyridin-3-yl)-indolizin-3-yl]-2-oxo-acetamide]"
3,< 1 µg/mL,"Cc1cc(C)nc(N2CCN(c3ccc(NC(=O)C(=O)c4c(C5CCCC5)cc5ccccn45)cc3)CC2)c1 [Example 47, 2-(2-Cyclopentyl-indolizin-3-yl)-N-{4-[4-(4,6-dimethyl-pyridin-2-yl)-piperazin-1-yl]-phenyl}-2-oxo-acetamide]"
4,< 1 µg/mL,"Cc1cc(C)nc(N2CCN(c3cccc(NC(=O)C(=O)c4c(-c5ccccc5)cc5ccccn45)c3)CC2)c1 [Example 48, N-{3-[4-(4,6-Dimethyl-pyridin-2-yl)-piperazin-1-yl]-phenyl}-2-oxo-2-(2-phenyl-indolizin-3-yl)-acetamide]"
5,< 1 µg/mL,"Cc1ccnc(N2CCN(c3ccc(NC(=O)C(=O)c4c(-c5ccccc5)cc5ccccn45)cc3)CC2)c1 [Example 49, N-{4-[4-(4-Methyl-pyridin-2-yl)-piperazin-1-yl]-phenyl}-2-oxo-2-(2-phenyl-indolizin-3-yl)-acetamide]"
6,< 1 µg/mL,"CC(C)(C)CN1CCN(c2ccc(NC(=O)C(=O)c3c(-c4ccccc4)cc4ccccn34)nc2)CC1 [Example 50, N-{5-[4-(2,2-Dimethyl-propyl)-piperazin-1-yl]-pyridin-2-yl}-2-oxo-2-(2-phenyl-indolizin-3-yl)-acetamide]"
7,< 1 µg/mL,"O=C(Nc1ccc(N2CCN(S(=O)(=O)c3cccnc3)CC2)cc1)C(=O)c1c(-c2ccccc2)cc2ccccn12 [Example 51, 2-Oxo-2-(2-phenyl-indolizin-3-yl)-N-{4-[4-(pyridine-3-sulfonyl)-piperazin-1-yl]-phenyl}-acetamide]"
8,> 10 µg/mL,"Cc1cc(N2CCN(c3ccc(NC(=O)C(=O)c4c(-c5ccccc5)cc5ccccn45)cc3)CC2)cc(C)n1 [Example 52, N-{4-[4-(2,6-Dimethyl-pyridin-4-yl)-piperazin-1-yl]-phenyl}-2-oxo-2-(2-phenyl-indolizin-3-yl)-acetamide]"
9,< 1 µg/mL,"Cc1cc(C)nc(N2CCCN(c3ccc(NC(=O)C(=O)c4c(-c5ccccc5)cc5ccccn45)cc3)CC2)c1 [Example 54, N-{4-[4-(4,6-Dimethyl-pyridin-2-yl)-[1,4]diazepan-1-yl]-phenyl}-2-oxo-2-(2-phenyl-indolizin-3-yl)-acetamide]"
10,< 1 µg/mL,"Cc1cc(C)nc(N(C)CCN(C)c2ccc(NC(=O)C(=O)c3c(-c4ccccc4)cc4ccccn34)cc2)c1 [Example 55, N-[4-({2-[(4,6-Dimethyl-pyridin-2-yl)-methyl-amino]-ethyl}-methyl-amino)-phenyl]-2-oxo-2-(2-phenyl-indolizin-3-yl)-acetamide]"
11,< 1 µg/mL,"O=C(Nc1ccc(N2CCN(c3ccc(CN4CCOCC4)cc3)CC2)cc1)C(=O)c1c(-c2ccccc2)cc2ccccn12 [Example 56, N-{4-[4-(4-Morpholin-4-ylmethyl-phenyl)-piperazin-1-yl]-phenyl}-2-oxo-2-(2-phenyl-indolizin-3-yl)-acetamide]"
12,< 1 µg/mL,"COCCOc1cc(C)nc(N2CCN(c3ccc(NC(=O)C(=O)c4c(-c5ccccc5)cc5ccccn45)cc3)CC2)c1 [Example 57, N-(4-{4-[4-(2-Methoxy-ethoxy)-6-methyl-pyridin-2-yl]-piperazin-1-yl}-phenyl)-2-oxo-2-(2-phenyl-indolizin-3-yl)-acetamide]"
